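Method: 48-hour compound exposure of cells in 96-well plates, five concentrations, linear interpolation of endpoints. At the GI50, growth is halved. TGI: concentration producing complete growth inhibition.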
Tests used:
Assay in all cases: NCI tumour cell line growth inhibition, 48 h
SW-620 colon = system: SW-620 colon
SF-539 CNS = system: SF-539 CNS
HCT-116 colon = system: HCT-116 colon
SNB-75 CNS = system: SNB-75 CNS
OVCAR-8 ovarian = system: OVCAR-8 ovarian
SN12C renal = system: SN12C renal
MALME-3M melanoma = system: MALME-3M melanoma
LOX IMVI melanoma = system: LOX IMVI melanoma
SF-268 CNS = system: SF-268 CNS
SK-OV-3 ovarian = system: SK-OV-3 ovarian

CN(C)c1cc2ccccc2oc1=O gave a TGI (SW-620 colon) of over 100 µM, a TGI (SF-539 CNS) of over 100 µM and a TGI (HCT-116 colon) of over 100 µM. For the same molecule, the TGI (SNB-75 CNS) was over 100 µM, the TGI (OVCAR-8 ovarian) was over 100 µM and the TGI (SN12C renal) was over 100 µM. For the same molecule, the TGI (MALME-3M melanoma) was over 100 µM, the TGI (LOX IMVI melanoma) was over 100 µM and the TGI (SF-268 CNS) was over 100 µM.

CC[O-].CC[O-].O=C([CH-]C(=O)c1ccccc1)CCCCCCCCC(=O)[CH-]C(=O)c1ccccc1.[Ti+4] gave a GI50 (SW-620 colon) of over 100 µM, a TGI (SW-620 colon) of over 100 µM and a GI50 (SNB-75 CNS) of over 100 µM. It also gave a TGI (SNB-75 CNS) of over 100 µM, a GI50 (OVCAR-8 ovarian) of 52.1 µM and a TGI (OVCAR-8 ovarian) of over 100 µM. It also gave a GI50 (SN12C renal) of over 100 µM, a TGI (SN12C renal) of over 100 µM and a GI50 (MALME-3M melanoma) of 73.6 µM. For the same molecule, the TGI (MALME-3M melanoma) was over 100 µM, the GI50 (SK-OV-3 ovarian) was over 100 µM and the TGI (SK-OV-3 ovarian) was over 100 µM. For the same molecule, the GI50 (LOX IMVI melanoma) was over 100 µM, the TGI (LOX IMVI melanoma) was over 100 µM and the GI50 (SF-268 CNS) was over 100 µM. For the same molecule, the TGI (SF-268 CNS) was over 100 µM.

Work on COC(=O)c1sc(C(=O)OC)c2c1CS(=O)C2 yielded a TGI (SW-620 colon) of over 100 µM, a TGI (SF-539 CNS) of over 100 µM and a TGI (HCT-116 colon) of over 100 µM. It also gave a TGI (SNB-75 CNS) of over 100 µM, a TGI (OVCAR-8 ovarian) of over 100 µM and a TGI (MALME-3M melanoma) of over 100 µM. It also gave a TGI (SK-OV-3 ovarian) of over 100 µM, a TGI (LOX IMVI melanoma) of over 100 µM and a TGI (SF-268 CNS) of over 100 µM.

For CCSCCCSCCSCC, the TGI (SW-620 colon) was over 100 µM, the TGI (SF-539 CNS) was over 100 µM and the TGI (HCT-116 colon) was over 100 µM. It also gave a TGI (SNB-75 CNS) of over 100 µM, a TGI (OVCAR-8 ovarian) of over 100 µM and a TGI (SN12C renal) of over 100 µM. It also gave a TGI (SK-OV-3 ovarian) of over 100 µM, a TGI (LOX IMVI melanoma) of over 100 µM and a TGI (SF-268 CNS) of over 100 µM.

In the case of CN(C)CCNC(=O)Cn1ccc(=O)c2cc([N+](=O)[O-])ccc21, the TGI (SW-620 colon) is reported as over 100 µM, the TGI (SF-539 CNS) is reported as over 100 µM and the TGI (HCT-116 colon) is reported as over 100 µM. It also gave a TGI (SN12C renal) of over 100 µM, a TGI (MALME-3M melanoma) of over 100 µM and a TGI (SK-OV-3 ovarian) of over 100 µM. The TGI (LOX IMVI melanoma) was over 100 µM and the TGI (SF-268 CNS) was over 100 µM.

CC1=C(C(=O)Nc2ccccc2C)C(c2ccc(Cl)cc2)C(C(=O)Nc2ccccc2C)=C(C)N1 was tested, and the TGI (SW-620 colon) was over 100 µM, the TGI (SF-539 CNS) was over 100 µM and the TGI (HCT-116 colon) was over 100 µM. For the same molecule, the TGI (OVCAR-8 ovarian) was over 100 µM, the TGI (SN12C renal) was over 100 µM and the TGI (MALME-3M melanoma) was over 100 µM. The TGI (SK-OV-3 ovarian) was over 100 µM, the TGI (LOX IMVI melanoma) was over 100 µM and the TGI (SF-268 CNS) was over 100 µM.

Work on N=C1C(O)C2(I)c3ccccc3N3C(=N)C(O)C4c5ccccc5N1C4C32 (configuration not stated) yielded a TGI (SW-620 colon) of over 100 µM, a TGI (HCT-116 colon) of over 100 µM and a TGI (SNB-75 CNS) of over 100 µM. For the same molecule, the TGI (OVCAR-8 ovarian) was over 100 µM, the TGI (SN12C renal) was over 100 µM and the TGI (MALME-3M melanoma) was over 100 µM. For the same molecule, the TGI (SK-OV-3 ovarian) was over 100 µM, the TGI (LOX IMVI melanoma) was over 100 µM and the TGI (SF-268 CNS) was over 100 µM.

C/C=C/C(C#N)O[Si](C)(C)C (configuration not stated) was tested, and the TGI (SW-620 colon) was over 100 µM, the TGI (SF-539 CNS) was over 100 µM and the TGI (HCT-116 colon) was over 100 µM. The TGI (SNB-75 CNS) was over 100 µM, the TGI (OVCAR-8 ovarian) was over 100 µM and the TGI (SN12C renal) was over 100 µM. For the same molecule, the TGI (MALME-3M melanoma) was over 100 µM, the TGI (SK-OV-3 ovarian) was over 100 µM and the TGI (SF-268 CNS) was over 100 µM.

IC[P+]1(c2ccccc2)CCCC1 was tested, and the TGI (SW-620 colon) was over 100 µM, the TGI (SF-539 CNS) was over 100 µM and the TGI (HCT-116 colon) was over 100 µM. It also gave a TGI (SNB-75 CNS) of 62.7 µM, a TGI (OVCAR-8 ovarian) of over 100 µM and a TGI (SN12C renal) of 60.8 µM. The TGI (MALME-3M melanoma) was over 100 µM, the TGI (SK-OV-3 ovarian) was over 100 µM and the TGI (LOX IMVI melanoma) was over 100 µM.

CCc1c(C#N)c(=O)[nH]c(=O)n1CCN1CCN(C(=O)NCCCCCCNC(=O)N2CCN(CCn3c(CC)c(C#N)c(=O)[nH]c3=O)CC2)CC1 showed a TGI (SW-620 colon) of over 100 µM, a TGI (SF-539 CNS) of over 100 µM and a TGI (HCT-116 colon) of over 100 µM. For the same molecule, the TGI (OVCAR-8 ovarian) was over 100 µM, the TGI (SN12C renal) was over 100 µM and the TGI (SK-OV-3 ovarian) was over 100 µM. For the same molecule, the TGI (LOX IMVI melanoma) was over 100 µM.

O=S(=O)(/N=c1\scc(-c2ccccc2)n1-c1ccccc1)c1ccc(N2N=C3c4ccccc4CC3C2c2ccc(Cl)cc2)cc1 (configuration not stated) was tested, and the GI50 (SW-620 colon) was 35 µM, the TGI (SW-620 colon) was over 100 µM and the GI50 (SF-539 CNS) was 62.6 µM. The TGI (SF-539 CNS) was over 100 µM, the GI50 (HCT-116 colon) was 47.5 µM and the TGI (HCT-116 colon) was over 100 µM. The GI50 (SNB-75 CNS) was over 100 µM, the TGI (SNB-75 CNS) was over 100 µM and the GI50 (OVCAR-8 ovarian) was 36.1 µM. The TGI (OVCAR-8 ovarian) was over 100 µM, the GI50 (SN12C renal) was 50.8 µM and the TGI (SN12C renal) was over 100 µM. The GI50 (SK-OV-3 ovarian) was 76.2 µM, the TGI (SK-OV-3 ovarian) was over 100 µM and the GI50 (LOX IMVI melanoma) was 21.5 µM. It also gave a TGI (LOX IMVI melanoma) of 43.5 µM, a GI50 (SF-268 CNS) of over 100 µM and a TGI (SF-268 CNS) of over 100 µM.
